Measurements: ChEMBL document CHEMBL5226393, “Semisynthesis of 22,25-Epoxylanostane Triterpenoids: Structure Revision and Protective Effects against Oxygen-Glucose Deprivation/Reoxygenation Injury in H9c2 Cells” (2023)
Activity calls are given as the source filed them. The calls are words filed in the database; no cut-off is given here.

How the values were obtained:
[1] = tested on: H9c2; assay: Cardioprotective activity against OGD/R-induced cell injury in rat H9c2 cells assessed as increase in cell viability at 20 uM subjected to OGD condition for 6 hrs followed by compound treatment and measured after 6 hrs by MTT assay relative to control; format: functional
[2] = tested on: H9c2; assay: Cardioprotective activity against OGD/R-induced cell injury in rat H9c2 cells assessed as increase in cell viability at 20 uM subjected to OGD condition for 6 hrs followed by compound treatment and measured after 6 hrs by MTT assay; format: functional, cell-based
[3] = tested on: H9c2; assay: Induction of mitochondrial membrane potential loss in OGD/R-induced rat H9c2 cells assessed as increase in red to green fluorescence ratio by JC-1 staining based microscopic analysis relative to control; format: functional
[4] = tested on: H9c2; assay: Induction of apoptosis in OGD/R-induced rat H9c2 cells assessed as late apoptotic cells at 5 uM preincubated with compound followed by treatment under OGD condition by Annexin V-FITC staining based flow cytometric analysis (reference value: 4.14%); format: functional
[5] = tested on: H9c2; assay: Induction of apoptosis in OGD/R-induced rat H9c2 cells assessed as early apoptotic cells at 10 uM preincubated with compound followed by treatment under OGD condition by Annexin V-FITC staining based flow cytometric analysis (reference value: 0.97%); format: functional
[6] = tested on: H9c2; assay: Induction of apoptosis in OGD/R-induced rat H9c2 cells assessed as viable cells at 10 uM preincubated with compound followed by treatment under OGD condition by Annexin V-FITC staining based flow cytometric analysis (reference value: 93.9%); format: functional; settings: read-out: Activity
[7] = tested on: H9c2; assay: Induction of apoptosis in OGD/R-induced rat H9c2 cells assessed as late apoptotic cells at 10 uM preincubated with compound followed by treatment under OGD condition by Annexin V-FITC staining based flow cytometric analysis (reference value: 4.14%); format: functional
[8] = tested on: H9c2; assay: Induction of apoptosis in OGD/R-induced rat H9c2 cells assessed as total apoptotic cells at 10 uM preincubated with compound for 24 hrs followed by treatment under OGD condition by Annexin V-FITC staining based flow cytometric analysis relative to control; format: functional
[9] = tested on: H9c2; assay: Cardioprotective activity against OGD/R-induced cell injury in rat H9c2 cells assessed as increase in cell viability at 5 uM subjected to OGD condition for 6 hrs followed by compound treatment and measured after 6 hrs by MTT assay relative to control; format: functional
[10] = tested on: H9c2; assay: Induction of apoptosis in OGD/R-induced rat H9c2 cells assessed as early apoptotic cells at 5 uM preincubated with compound followed by treatment under OGD condition by Annexin V-FITC staining based flow cytometric analysis (reference value: 0.97%); format: functional
[11] = tested on: H9c2; assay: Induction of apoptosis in OGD/R-induced rat H9c2 cells assessed as total apoptotic cells at 5 uM preincubated with compound for 24 hrs followed by treatment under OGD condition by Annexin V-FITC staining based flow cytometric analysis relative to control; format: functional
[12] = tested on: H9c2; assay: Induction of apoptosis in OGD/R-induced rat H9c2 cells assessed as viable cells at 5 uM preincubated with compound followed by treatment under OGD condition by Annexin V-FITC staining based flow cytometric analysis (reference value: 93.9%); format: functional; settings: read-out: Activity
[13] = tested on: H9c2; assay: Induction of apoptosis in OGD/R-induced rat H9c2 cells assessed as necrotic cells at 10 uM preincubated with compound followed by treatment under OGD condition by Annexin V-FITC staining based flow cytometric analysis (reference value: 1.01%); format: functional
[14] = tested on: H9c2; assay: Induction of apoptosis in OGD/R-induced rat H9c2 cells assessed as necrotic cells at 5 uM preincubated with compound followed by treatment under OGD condition by Annexin V-FITC staining based flow cytometric analysis (reference value: 1.01%); format: functional
[15] = tested on: H9c2; assay: Induction of apoptosis in OGD/R-induced rat H9c2 cells assessed as necrotic cells at 100 uM preincubated with compound followed by treatment under OGD condition by Annexin V-FITC staining based flow cytometric analysis (reference value: 1.01%); format: functional
[16] = tested on: H9c2; assay: Induction of apoptosis in OGD/R-induced rat H9c2 cells assessed as total apoptotic cells at 100 uM preincubated with compound for 24 hrs followed by treatment under OGD condition by Annexin V-FITC staining based flow cytometric analysis relative to control; format: functional
[17] = tested on: H9c2; assay: Induction of apoptosis in OGD/R-induced rat H9c2 cells assessed as early apoptotic cells at 100 uM preincubated with compound followed by treatment under OGD condition by Annexin V-FITC staining based flow cytometric analysis (reference value: 0.97%); format: functional
[18] = tested on: H9c2; assay: Cardioprotective activity against OGD/R-induced cell injury in rat H9c2 cells assessed as increase in cell viability at 100 uM subjected to OGD condition for 6 hrs followed by compound treatment and measured after 6 hrs by MTT assay relative to control; format: functional
[19] = tested on: H9c2; assay: Induction of apoptosis in OGD/R-induced rat H9c2 cells assessed as viable cells at 100 uM preincubated with compound followed by treatment under OGD condition by Annexin V-FITC staining based flow cytometric analysis (reference value: 93.9%); format: functional; settings: read-out: Activity
[20] = tested on: H9c2; assay: Induction of apoptosis in OGD/R-induced rat H9c2 cells assessed as late apoptotic cells at 100 uM preincubated with compound followed by treatment under OGD condition by Annexin V-FITC staining based flow cytometric analysis (reference value: 4.14%); format: functional

## C[C@@H]([C@H]1CC[C@@]2(C)C3=CC[C@H]4C(C)(C)[C@@H](O)CC[C@]4(C)C3=CC[C@]12C)[C@H]1CCC(C)(C)O1
[1]
  Activity: 11.4%

## C[C@H]([C@@H]1CCC(C)(C)O1)[C@H]1CC[C@@]2(C)C3=C(CC[C@]12C)[C@@]1(C)CC[C@H](O)C(C)(C)[C@@H]1CC3
[1]
  Activity: 10.8%

## C[C@H]([C@@H]1C[C@H](O)C(C)(C)O1)[C@H]1CC[C@@]2(C)C3=C(CC[C@]12C)[C@@]1(C)CC[C@H](O)C(C)(C)[C@@H]1CC3
[2]
  Activity: inactive

## C[C@H]([C@@H]1C[C@H](O)C(C)(C)O1)[C@H]1CC[C@@]2(C)C3=CC[C@H]4C(C)(C)[C@@H](O)CC[C@]4(C)C3=CC[C@]12C
[2]
  Activity: inactive

## C[C@@H]([C@H]1CC[C@@]2(C)C3=C(CC[C@]12C)[C@@]1(C)CC[C@H](O)C(C)(C)[C@@H]1CC3)[C@H]1C[C@H](O)C(C)(C)O1
[2]
  Activity: inactive

## C[C@@H]([C@H]1CC[C@@]2(C)C3=CC[C@H]4C(C)(C)[C@@H](O)CC[C@]4(C)C3=CC[C@]12C)[C@H]1C[C@@H](O)C(C)(C)O1
[2]
  Activity: inactive

## C[C@@H]([C@H]1CC[C@@]2(C)C3=C(CC[C@]12C)[C@@]1(C)CC[C@H](O)C(C)(C)[C@@H]1CC3)[C@H]1CCC(C)(C)O1
[3]
  Activity: 90%
[4]
  Activity: 13.3%
[5]
  Activity: 5.12%
[6]
  viability at 10 µM: 85.9%
[7]
  Activity: 8.97%
[8]
  Activity: 14.5%
[9]
  Activity: 11.4%
[10]
  Activity: 2.55%
[11]
  Activity: 17.4%
[1]
  Activity: 18.7%
[12]
  viability at 5 µM: 83.7%
[13]
  Activity: 0.035%
[14]
  Activity: 0.52%

## CC1=Nc2ccc(Cl)cc2S(=O)(=O)N1 [DIAZOXIDE]
[15]
  Activity: 0.58%
[16]
  Activity: 17.3%
[17]
  Activity: 5.41%
[18]
  Activity: 14.9%
[19]
  viability at 100 µM: 81.3%
[20]
  Activity: 12.7%

## C=C(C)[C@@H]1CC=C2C(=CC[C@]3(C)[C@@H]([C@H](C)[C@H]4CCC(C)(C)O4)CC[C@@]23C)[C@@]1(C)CCC(=O)O
[9]
  Activity: 6.4%
[1]
  Activity: 17.7%

## C[C@@H]([C@H]1CC[C@@]2(C)C3=CC[C@H]4C(C)(C)[C@@H](O)CC[C@]4(C)C3=CC[C@]12C)[C@H]1C[C@H](O)C(C)(C)O1
[2]
  Activity: inactive

## C[C@H]([C@@H]1C[C@@H](O)C(C)(C)O1)[C@H]1CC[C@@]2(C)C3=C(CC[C@]12C)[C@@]1(C)CC[C@H](O)C(C)(C)[C@@H]1CC3
[2]
  Activity: inactive

## C[C@@H]([C@H]1CC[C@@]2(C)C3=C(CC[C@]12C)[C@@]1(C)CC[C@H](O)C(C)(C)[C@@H]1CC3)[C@H]1C[C@@H](O)C(C)(C)O1
[2]
  Activity: inactive

## C[C@H]([C@@H]1C[C@@H](O)C(C)(C)O1)[C@H]1CC[C@@]2(C)C3=CC[C@H]4C(C)(C)[C@@H](O)CC[C@]4(C)C3=CC[C@]12C
[2]
  Activity: inactive

## C[C@H]([C@@H]1CCC(C)(C)O1)[C@H]1CC[C@@]2(C)C3=CC[C@H]4C(C)(C)[C@@H](O)CC[C@]4(C)C3=CC[C@]12C
[1]
  Activity: 10.6%
